Experimental data published in the NIST ThermoML archive (doi:10.1016/j.tca.2012.10.024).

Key:
[1] = refractive index (Na D-line) (dimensionless); xn = mol fraction of the nth substance listed; conditions: 101 kPa, Liquid, Standard Abbe refractometry
[2] = relative permittivity at zero frequency (dimensionless); xn = mol fraction of the nth substance listed; conditions: 101 kPa, Liquid, Parallel plate capacitor

COCCOCCOCCOCCOC [2,5,8,11,14-pentaoxapentadecane] + CCCCCCCC
Conditions	refractive index, 293.15 K	refractive index, 298.15 K	refractive index, 303.15 K	relative permittivity at zero frequency, 293.15 K	relative permittivity at zero frequency, 298.15 K	relative permittivity at zero frequency, 303.15 K
[1], x1 = 0.0503	1.3993	1.3969	1.3946	–	–	–
[1], x1 = 0.1003	1.4011	1.3987	1.3965	–	–	–
[1], x1 = 0.1515	1.4031	1.4007	1.3985	–	–	–
[1], x1 = 0.2061	1.4052	1.4028	1.4006	–	–	–
[1], x1 = 0.245	1.4067	1.4043	1.4021	–	–	–
[1], x1 = 0.305	1.4091	1.4067	1.4045	–	–	–
[1], x1 = 0.3569	1.4111	1.4087	1.4065	–	–	–
[1], x1 = 0.4054	1.4127	1.4106	1.4084	–	–	–
[1], x1 = 0.4487	1.4144	1.4122	1.41	–	–	–
[1], x1 = 0.5043	1.4163	1.4142	1.4121	–	–	–
[1], x1 = 0.5537	1.4182	1.4159	1.4138	–	–	–
[1], x1 = 0.5963	1.4195	1.4173	1.4151	–	–	–
[1], x1 = 0.6473	1.4213	1.4191	1.417	–	–	–
[1], x1 = 0.693	1.4228	1.4208	1.4186	–	–	–
[1], x1 = 0.7515	1.4248	1.4227	1.4207	–	–	–
[1], x1 = 0.8067	1.4268	1.4248	1.423	–	–	–
[1], x1 = 0.8475	1.4281	1.426	1.4239	–	–	–
[1], x1 = 0.8941	1.4295	1.4275	1.4256	–	–	–
[1], x1 = 0.947	1.431	1.429	1.4271	–	–	–
[2], x1 = 0.033	–	–	–	2.107	2.098	2.088
[2], x1 = 0.0659	–	–	–	2.254	2.242	2.23
[2], x1 = 0.0998	–	–	–	2.413	2.398	2.382
[2], x1 = 0.133	–	–	–	2.577	2.558	2.538
[2], x1 = 0.1645	–	–	–	2.736	2.715	2.693
[2], x1 = 0.2003	–	–	–	2.922	2.896	2.87
[2], x1 = 0.2488	–	–	–	3.19	3.158	3.126
[2], x1 = 0.3002	–	–	–	3.476	3.438	3.4
[2], x1 = 0.3486	–	–	–	3.762	3.718	3.675
[2], x1 = 0.3951	–	–	–	4.03	3.981	3.931
[2], x1 = 0.4461	–	–	–	4.347	4.291	4.234
[2], x1 = 0.5092	–	–	–	4.738	4.674	4.61
[2], x1 = 0.5516	–	–	–	5.005	4.937	4.867
[2], x1 = 0.6003	–	–	–	5.313	5.238	5.163
[2], x1 = 0.6409	–	–	–	5.578	5.499	5.42
[2], x1 = 0.693	–	–	–	5.909	5.823	5.736
[2], x1 = 0.7072	–	–	–	6.004	5.916	5.827
[2], x1 = 0.7515	–	–	–	6.298	6.205	6.111
[2], x1 = 0.8002	–	–	–	6.622	6.523	6.421
[2], x1 = 0.8461	–	–	–	6.943	6.838	6.732
[2], x1 = 0.8985	–	–	–	7.279	7.168	7.057
[2], x1 = 0.9441	–	–	–	7.585	7.469	7.351

COCCOCCOCCOCCOC [2,5,8,11,14-pentaoxapentadecane] + CCCCCO
Conditions	refractive index, 293.15 K	refractive index, 298.15 K	refractive index, 303.15 K	relative permittivity at zero frequency, 293.15 K	relative permittivity at zero frequency, 298.15 K	relative permittivity at zero frequency, 303.15 K
[1], x2 = 0.0505	1.4319	1.4302	1.4279	–	–	–
[1], x2 = 0.1002	1.4315	1.4294	1.4273	–	–	–
[1], x2 = 0.1509	1.4305	1.4286	1.4265	–	–	–
[1], x2 = 0.1919	1.4301	1.4281	1.4259	–	–	–
[1], x2 = 0.2458	1.4291	1.4272	1.4251	–	–	–
[1], x2 = 0.291	1.4285	1.4265	1.4244	–	–	–
[1], x2 = 0.3384	1.4276	1.4256	1.4236	–	–	–
[1], x2 = 0.3986	1.4265	1.4246	1.4225	–	–	–
[1], x2 = 0.4554	1.4256	1.4235	1.4215	–	–	–
[1], x2 = 0.493	1.4248	1.4229	1.4207	–	–	–
[1], x2 = 0.5496	1.4236	1.4217	1.4196	–	–	–
[1], x2 = 0.5931	1.4227	1.4207	1.4186	–	–	–
[1], x2 = 0.6455	1.4214	1.4194	1.4174	–	–	–
[1], x2 = 0.6979	1.42	1.4181	1.416	–	–	–
[1], x2 = 0.7424	1.4188	1.4168	1.4148	–	–	–
[1], x2 = 0.7959	1.4172	1.4153	1.4133	–	–	–
[1], x2 = 0.8372	1.4159	1.4141	1.4121	–	–	–
[1], x2 = 0.8679	1.4149	1.4131	1.4111	–	–	–
[1], x2 = 0.8987	1.4139	1.4121	1.41	–	–	–
[1], x2 = 0.9225	1.413	1.4112	1.4092	–	–	–
[1], x2 = 0.9488	1.412	1.4102	1.4081	–	–	–
[1], x2 = 0.9793	1.4109	1.409	1.407	–	–	–
[2], x2 = 0.0505	–	–	–	7.99	7.863	7.737
[2], x2 = 0.1002	–	–	–	7.97	7.843	7.715
[2], x2 = 0.1509	–	–	–	8.043	7.911	7.779
[2], x2 = 0.1919	–	–	–	8.041	7.906	7.771
[2], x2 = 0.2458	–	–	–	8.132	7.993	7.854
[2], x2 = 0.291	–	–	–	8.15	8.009	7.866
[2], x2 = 0.3384	–	–	–	8.271	8.119	7.968
[2], x2 = 0.3986	–	–	–	8.344	8.186	8.029
[2], x2 = 0.4554	–	–	–	8.523	8.35	8.18
[2], x2 = 0.493	–	–	–	8.615	8.438	8.26
[2], x2 = 0.5496	–	–	–	8.857	8.662	8.469
[2], x2 = 0.5931	–	–	–	9.027	8.819	8.615
[2], x2 = 0.6455	–	–	–	9.353	9.122	8.896
[2], x2 = 0.6979	–	–	–	9.71	9.454	9.203
[2], x2 = 0.7424	–	–	–	10.138	9.853	9.577
[2], x2 = 0.7959	–	–	–	10.73	10.413	10.103
[2], x2 = 0.8372	–	–	–	11.351	10.992	10.643
[2], x2 = 0.8679	–	–	–	11.894	11.506	11.123
[2], x2 = 0.8987	–	–	–	12.519	12.102	11.691
[2], x2 = 0.9225	–	–	–	13.119	12.665	12.217
[2], x2 = 0.9488	–	–	–	13.878	13.383	12.896
[2], x2 = 0.9793	–	–	–	14.929	14.377	13.834
